Results from ChEMBL document CHEMBL3817795, “Identification and optimisation of a series of N-(4-anilino-2-pyridyl)acetamide activin receptor-like kinase 1 (ALK1) inhibitors” (Medchemcomm, 2016).
≈ marks a conversion by molar mass, not a printed value.

Legend:
[1] = Solubility of the compound; format: physicochemical
[2] = Lipophilicity, log D of the compound at pH 7.4; format: physicochemical; conditions: buffer

| solubility [1] | logD [2] | SMILES |
| --- | --- | --- |
| 49 µM (≈ 14.1 µg/mL) | – | O=C(Nc1cc(Nc2ccccc2Cl)ccn1)C1CC1 |
| – | 3.7 | O=C(Nc1cc(Nc2cccc3c2OCO3)ccn1)C1CC1 |
| – | 2.7 | CC(=O)Nc1cc(Nc2c(Cl)ccc3c2OCO3)ccn1 |
